Measurements: patent publication US20160361257A1, “COMPOSITION FOR INCREASING TESTOSTERONE LEVELS AND ENHANCING LIBIDO” (priority 2015, published 2016)

Columns and labels:
[1] = humans; prior art U.S. Pat. No. 5,880,117; cited from earlier work
[2] = half-life when delivered sublingually or transmucosally; settings: in vivo
Experimental: 7-methoxyflavone is an aromatase inhibitor. Aromatase inhibitors work by inhibiting the action of the enzyme aromatase, which converts androgens into estrogens by a process called aromatization. 7-methoxyflavone is a compound having poor bioavailability of about 5% when ingested. According to an embodiment of the present invention, from about 5 mg to 50 mg, and preferably from about 20 mg to 30 mg of 7-methoxyflavone may be included in the formulations and dosage forms of the present invention, when delivered sublingually or transmucosally. […] According to an embodiment, the 7-methoxyflavone may be from a plant extract. 7-methoxyflavone has been found in Meliaceae and Rutaceae plants. According to an embodiment, the 7-methoxyflavone may therefore be from an extract containing at least 90% 7-methoxyflavone, standardized. Preferably, extract contains at least […] 7-methoxyflavone, standardized.
According to an embodiment of the present invention, from about 5 mg to 50 mg, and preferably from about 20 mg to 30 mg of 7,8-benzoflavone may be included in the formulations and dosage forms of the present invention, when delivered sublingually or transmucosally. According to an embodiment, the half-life of 7,8-benzoflavone is about 1-2h when delivered sublingually or transmucosally.

C[C@]12CC[C@H]3[C@@H](CCC4=C[C@@H](O)CC[C@@]43C)[C@@H]1CC[C@@H]2O [4-androstene-3β, 17β-diol]
period over which concentration declines after the peak [1]: 3 to 4 h
time to peak concentration after administration [1]: ≤ 90 min

O=c1cc(-c2ccccc2)oc2c1ccc1ccccc12 [7,8-benzoflavone, 2-phenyl-benzo(h)chromen-4-one]
half-life [2]: 1 to 2 h

COc1ccc2c(=O)cc(-c3ccccc3)oc2c1 [7-methoxyflavone]
half-life [2]: 8 to 12 h
